Data reported in US20100041089A1, “IMPROVED METHOD FOR DETECTING CHEMICAL […]” (priority 2006, published 2010).

System: yeast genes (expressed mRNA)
Assay: DNA chip measurement of expressed mRNA of yeast genes after culture with a toxic chemical substance
Assay type: cell-based, Saccharomyces cerevisiae S288C
Conditions: for The level of expressed mRNA in the presence of chemical substance/The level of expressed mRNA in the absence of chemical substance: cultured two hours with substance; for level of expressed mRNA in the presence of chemical substance / level in the absence of chemical substance: cultured two hours with the chemical substance
Description: Yeast (Saccharomyces cerevisiae S288C (a SUC2mal mel gap2 CUP1)) were cultured at 25° C. on YPD medium (yeast extract 1%, polypeptone 2%, glucose 2%). One of toxic chemical substances was added to the cell at logarithmic growth phase, and the cell was further cultured for two hours. Cell was cultured without any chemical substance in the same condition, and was used as a control. Concentrations of the chemical substances were defined to inhibit the growth of the yeast but not lead to death.
After the completion of cultivation, the culture was centrifuged to collect the cells. To the cells, sodium acetate buffer (50 mM sodium acetate, 10 mM EDTA, 1% SDS) was added, and the mixture was shaken at 65° C. for five minutes, followed by returning to room temperature, and obtaining the supernatant, which procedure was repeated two times. To the supernatant, ½ amount of a solution of phenol/chloroform (1:1) was added, and the mixture was centrifuged to give a supernatant, an equal amount of chloroform was added, and the mixture was centrifuged to give a supernatant. To the supernatant, an equal amount of isopropanol containing 0.3 M sodium acetate was added, and the mixture was allowed to stand at room temperature for 30 minutes, after which the mixture was centrifuged to give sediment of the whole RNAs. Seventy % ethanol was added to the sediment, and the mixture was again centrifuged to give sediment, which was then dried and dissolved in water. mRNA was isolated from the whole RNAs as followings. In view of the fact that a poly A chain is attached to the 3′ terminus of mRNA, a polynucleotide having a poly T structure which was immobilized on the surface of latex beads was used to trap the mRNA, and then the mRNA was washed and eluted with spine column (Oligotex-dT30<Super>mRNA Purification Kit, Takara). Reverse transcription of the mRNA was conducted with a reverse transcriptase (Super Script II Reverse Transcriptase; catalogue No. 18064-014, GibcoBRL) using fluorescence-labeled nucleotides to give cDNAs that were introduced with Cy3-dUTP or Cy5-dUTP during the reverse transcription.
The labeled cDNAs were dissolved in TE buffer (10 mM Tris-HCl/1 mM EDTA, pH 8.0), and the solution was dropped on the DNA chip containing the whole genes of yeast (DNA Chip Research Inc. Japan) so that the cDNAs were hybridized on the DNA chip at 65° C. for over 12 hours. The fluoresces intensity of the DNA chip was read with a scanner, and the ratio relative to the fluorescence intensity resulting from the absence of chemical substance was estimated as the following, which is shown in Tables 1 to 9.
In the Tables, “Intensity” indicated in the rightmost column is a value of the level of expressed mRNA of each gene in control cells as divided by the average level of the expressions of the whole genes. A gene of which mRNA level is lower in control, and is higher in cases of addition of chemical substance, is especially useful in the detection of toxic substances.
Here, when a ratio of an amount of mRNA expressed in the presence of the chemical substance to an amount of mRNA expressed in the absence of the chemical substance is two or more, then it is considered significant.

Manganese ethylenebis(dithiocarbamate) [(8)]
0.8: The level of expressed mRNA in the presence of chemical substance/The level of expressed mRNA in the absence of chemical substance (yeast gene YNL115C) | The level of expressed mRNA in the presence of chemical substance/The level of expressed mRNA in the absence of chemical substance (yeast gene YOL036W) | level of expressed mRNA in the presence of chemical substance / level in the absence of chemical substance (yeast gene YOR087W) | level of expressed mRNA in the presence of chemical substance / level in the absence of chemical substance (yeast gene YOR138C) | level of expressed mRNA in the presence of chemical substance / level in the absence of chemical substance (yeast gene YPR146C)
1.0: level of expressed mRNA in the presence of chemical substance / level in the absence of chemical substance (yeast gene YPL005W) | The level of expressed mRNA in the presence of chemical substance/The level of expressed mRNA in the absence of chemical substance (yeast gene YPL087W) | level of expressed mRNA in the presence of chemical substance / level in the absence of chemical substance (yeast gene YPL180W) | The level of expressed mRNA in the presence of chemical substance/The level of expressed mRNA in the absence of chemical substance (yeast gene YPL206C) | level of expressed mRNA in the presence of chemical substance / level in the absence of chemical substance (yeast gene YPR172W)
1.1: level of expressed mRNA in the presence of chemical substance / level in the absence of chemical substance (yeast gene YNL253W) | The level of expressed mRNA in the presence of chemical substance/The level of expressed mRNA in the absence of chemical substance (yeast gene YNR068C) | level of expressed mRNA in the presence of chemical substance / level in the absence of chemical substance (yeast gene YOL026C) | The level of expressed mRNA in the presence of chemical substance/The level of expressed mRNA in the absence of chemical substance (yeast gene YOL047C) | The level of expressed mRNA in the presence of chemical substance/The level of expressed mRNA in the absence of chemical substance (yeast gene YOL082W) | The level of expressed mRNA in the presence of chemical substance/The level of expressed mRNA in the absence of chemical substance (yeast gene YOL117W) | The level of expressed mRNA in the presence of chemical substance/The level of expressed mRNA in the absence of chemical substance (yeast gene YOL131W) | The level of expressed mRNA in the presence of chemical substance/The level of expressed mRNA in the absence of chemical substance (yeast gene YOR019W) | level of expressed mRNA in the presence of chemical substance / level in the absence of chemical substance (yeast gene YPL150W) | level of expressed mRNA in the presence of chemical substance / level in the absence of chemical substance (yeast gene YPL152W) | level of expressed mRNA in the presence of chemical substance / level in the absence of chemical substance (yeast gene YPR049C)
0.7: level of expressed mRNA in the presence of chemical substance / level in the absence of chemical substance (yeast gene YNL200C) | level of expressed mRNA in the presence of chemical substance / level in the absence of chemical substance (yeast gene YNL276C) | The level of expressed mRNA in the presence of chemical substance/The level of expressed mRNA in the absence of chemical substance (yeast gene YNL305C) | level of expressed mRNA in the presence of chemical substance / level in the absence of chemical substance (yeast gene YNR051C) | level of expressed mRNA in the presence of chemical substance / level in the absence of chemical substance (yeast gene YOR267C) | The level of expressed mRNA in the presence of chemical substance/The level of expressed mRNA in the absence of chemical substance (yeast gene YPL222W)
3.7: The level of expressed mRNA in the presence of chemical substance/The level of expressed mRNA in the absence of chemical substance (yeast gene YOL150C)
1.4: The level of expressed mRNA in the presence of chemical substance/The level of expressed mRNA in the absence of chemical substance (yeast gene YPR151C)
0.9: The level of expressed mRNA in the presence of chemical substance/The level of expressed mRNA in the absence of chemical substance (yeast gene YNL092W) | level of expressed mRNA in the presence of chemical substance / level in the absence of chemical substance (yeast gene YNL176C) | level of expressed mRNA in the presence of chemical substance / level in the absence of chemical substance (yeast gene YNL194C) | The level of expressed mRNA in the presence of chemical substance/The level of expressed mRNA in the absence of chemical substance (yeast gene YOR197W) | level of expressed mRNA in the presence of chemical substance / level in the absence of chemical substance (yeast gene YOR325W) | level of expressed mRNA in the presence of chemical substance / level in the absence of chemical substance (yeast gene YPL221W) | The level of expressed mRNA in the presence of chemical substance/The level of expressed mRNA in the absence of chemical substance (yeast gene YPR023C)
0.6: The level of expressed mRNA in the presence of chemical substance/The level of expressed mRNA in the absence of chemical substance (yeast gene YNL074C)
1.6: The level of expressed mRNA in the presence of chemical substance/The level of expressed mRNA in the absence of chemical substance (yeast gene YOL071W) | The level of expressed mRNA in the presence of chemical substance/The level of expressed mRNA in the absence of chemical substance (yeast gene YOL162W) | level of expressed mRNA in the presence of chemical substance / level in the absence of chemical substance (yeast gene YPL188W)
1.2: The level of expressed mRNA in the presence of chemical substance/The level of expressed mRNA in the absence of chemical substance (yeast gene YNL156C) | The level of expressed mRNA in the presence of chemical substance/The level of expressed mRNA in the absence of chemical substance (yeast gene YNL281W) | level of expressed mRNA in the presence of chemical substance / level in the absence of chemical substance (yeast gene YOR022C) | level of expressed mRNA in the presence of chemical substance / level in the absence of chemical substance (yeast gene YOR253W) | level of expressed mRNA in the presence of chemical substance / level in the absence of chemical substance (yeast gene YPL168W) | The level of expressed mRNA in the presence of chemical substance/The level of expressed mRNA in the absence of chemical substance (yeast gene YPL196W)
1.8: The level of expressed mRNA in the presence of chemical substance/The level of expressed mRNA in the absence of chemical substance (yeast gene YNL044W)
1.5: level of expressed mRNA in the presence of chemical substance / level in the absence of chemical substance (yeast gene YNL063W) | The level of expressed mRNA in the presence of chemical substance/The level of expressed mRNA in the absence of chemical substance (yeast gene YOL032W) | level of expressed mRNA in the presence of chemical substance / level in the absence of chemical substance (yeast gene YPR148C)
1.3: The level of expressed mRNA in the presence of chemical substance/The level of expressed mRNA in the absence of chemical substance (yeast gene YNL234W) | The level of expressed mRNA in the presence of chemical substance/The level of expressed mRNA in the absence of chemical substance (yeast gene YOL083W)
1.7: level of expressed mRNA in the presence of chemical substance / level in the absence of chemical substance (yeast gene YPL225W)
